Reference: patent US20050215478A1, “Amino acid sequences capable of facilitating penetration across a biological barrier” (priority 2002, published 2005)
No end group written: not given here.

Key:
[1] = Relative potency of penetrating peptides as tested in mice (Example 3); type: in vivo; conditions: IBW-002 = 100
Text: Relative Potency of Penetrating Peptides as Tested in Mice.

[2] = Translocation of ^125I-labeled peptide from mouse intestine loop into blood and organs (Example 1); type: in vivo, BALB/c mice; conditions: similar experiments; injected into a mouse intestinal loop; fraction of the full conjugate IBW-002
Text: The tested peptide, representing a penetrating peptide and a radio-labeled probe in a contiguous construct of SEQ ID NO 3 and SEQ ID NO 17, hereby named IBW 002 (Novetide, lot 40139-45, sequence: Ac-NYYDITLALAGICQSARLVQQLAGGGKGGK-NH2 (SEQ ID NO:22), was ^125I-labeled using the Bolton Hunter Reagent (Biochem. J. 133:529-39 (1973)). The labeled peptide was loaded on a Sephadex G10 column, washed with phosphate buffer and eluted with 3M Tiocyanate in DDW+50% n-butanol. The peak, containing 6 fractions, was kept and used for in vivo experiments.
Four male BALB/c mice, 9-10 weeks old, were deprived of food, 18 hours prior to the experiment.
The mice were anesthetized by i.p. injection of 0.05 ml of a mixture of 0.15 ml xylazine+0.85 ml of ketamin. A 2 cm long incision was made along the center of the abdomen, through the skin and abdominal wall. An intestine loop was gently pulled out through the incision and placed on wet gauze beside the animal. The loop remained intact through the entire procedure and was kept wet during the whole time. The tested compound was injected into the loop, 0.2 ml/ mouse, containing around 200,000 cpm, using a 26G needle. Fifteen minutes post injection the tip of the tail was cut and a 50 μl blood sample was drawn into a glass capillary. This was repeated 30 and 60 minutes post injection. The animals were subsequently sacrificed. The following organs were removed: epididymal fat, kidneys, liver, lungs and brain. Radioactivity in each organ and in blood samples was counted. A 5 μl sample of the injected solution was counted to determine the total injected cpm per mouse.
The total radioactive labeling injected per mouse was 224,160 cpm. Total cpm in the blood was calculated based on the 50 μl blood sample drawn out at different time points post injection, in the assumption that total blood volume of each mouse is 2 ml.

Substance	Relative potency (%) [1]	average amount recovered from the blood and various organs, relative to that obtained with IBW-002 [2]
AcMNYYDITLALAGICQSARLVQQLAGGGKGGKNH2 (Ac-MNYYDITLALAGICQSARLVQQLAGGGKGGK-NH2) [IBW-002V1]	73%	
AcMRNLTRTSLLLAGLCTAAQMVFVGGGKGGKNh2 (Ac-MRNLTRTSLLLAGLCTAAQMVFVGGGKGGK-NH2) [IBW-005]	51%	
AcMYDITLALAGICQSARIVQQLAGGKGGKNH2 [IBW-002V3]	77%	
AcMYYDITLALAGICQSARLVQQLAGGGKGGKNH2 (Ac-MYYDITLALAGICQSARLVQQLAGGGKGGK-NH2) [IBW-002V2]	80%	
AcNLPPIVLAVIGICAAVFLLQQYVGGGKGGKNH2 (Ac-NLPPIVLAVIGICAAVFLLQQYVGGGKGGK-NH2) [IBW-003]	37%	
AcNYFIVNLALADLCMAAFNAAFNFGGGKGGKNH2 (Ac-NYFIVNLALADLCMAAFNAAFNFGGGKGGK-NH2) [IBW-004]	63%	
AcNYFLVNLAFAEASMAAFNTVVNFGGKGGKNH2 (Ac-NYFLVNLAFAEASMAAFNTVVNFGGKGGK-NH2) [IBW-007]	66%	
AcNYHDIVLALAGVCQSARLVHQLAGGKGGKNH2 [IBW-006]	77%	
GGKGGK (also: 125I label, site not given here) [SEQ ID NO:17, reference compound]		about ⅕
